Test results: US7759331B2, “Pyridine-containing macroheterococylic compounds as kinase inhibitors” (Janssen Pharmaceutica NV, priority 2006, dated 2010)

Experiments:
Assay in all cases: Protein kinase selectivity panel
Assay type in all cases: biochemical
Conditions in all cases: 1.0 μM compound, 10 μM ATP
CaMKIV(h) = molecular target: T1, CaMKIV(h) (Homo sapiens, UniProt Q16566)
T1 sequence (Q16566 1-473): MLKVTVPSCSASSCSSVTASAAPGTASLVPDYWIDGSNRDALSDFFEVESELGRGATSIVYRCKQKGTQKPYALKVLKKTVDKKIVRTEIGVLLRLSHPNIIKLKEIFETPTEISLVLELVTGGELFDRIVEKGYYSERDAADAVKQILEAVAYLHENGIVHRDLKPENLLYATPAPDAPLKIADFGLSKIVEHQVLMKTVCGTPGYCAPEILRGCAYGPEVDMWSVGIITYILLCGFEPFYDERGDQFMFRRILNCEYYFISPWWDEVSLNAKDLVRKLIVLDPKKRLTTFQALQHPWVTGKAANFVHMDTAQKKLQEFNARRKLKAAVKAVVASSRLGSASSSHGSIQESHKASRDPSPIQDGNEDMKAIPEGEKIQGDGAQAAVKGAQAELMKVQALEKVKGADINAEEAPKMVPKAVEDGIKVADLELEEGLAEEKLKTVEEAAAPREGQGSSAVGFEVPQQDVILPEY
In short: (§1)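 Each kinase was tested for phosphorylation of its appropriate peptide or protein substrate with compound present at 1.0 μM. ATP was held at 10 μM, and reactions were run within the linear range with respect to time.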

MAPK1(h) = MAPK1(h) (Homo sapiens, UniProt P27361)
Sequence of MAPK1(h) (P27361 whole entry): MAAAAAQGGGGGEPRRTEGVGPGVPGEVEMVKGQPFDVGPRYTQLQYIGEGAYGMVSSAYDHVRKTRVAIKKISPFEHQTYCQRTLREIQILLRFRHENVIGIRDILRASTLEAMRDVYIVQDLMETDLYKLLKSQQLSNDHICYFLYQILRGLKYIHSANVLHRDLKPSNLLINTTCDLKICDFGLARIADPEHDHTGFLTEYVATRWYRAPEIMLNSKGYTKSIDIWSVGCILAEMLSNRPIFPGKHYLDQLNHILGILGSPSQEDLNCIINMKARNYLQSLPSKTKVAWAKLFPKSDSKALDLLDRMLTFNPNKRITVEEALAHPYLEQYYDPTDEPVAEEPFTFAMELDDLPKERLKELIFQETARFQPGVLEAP
In short: as §1

MSK1(h) = MSK1(h) (Homo sapiens, UniProt O75582)
Sequence of MSK1(h) (O75582 whole entry): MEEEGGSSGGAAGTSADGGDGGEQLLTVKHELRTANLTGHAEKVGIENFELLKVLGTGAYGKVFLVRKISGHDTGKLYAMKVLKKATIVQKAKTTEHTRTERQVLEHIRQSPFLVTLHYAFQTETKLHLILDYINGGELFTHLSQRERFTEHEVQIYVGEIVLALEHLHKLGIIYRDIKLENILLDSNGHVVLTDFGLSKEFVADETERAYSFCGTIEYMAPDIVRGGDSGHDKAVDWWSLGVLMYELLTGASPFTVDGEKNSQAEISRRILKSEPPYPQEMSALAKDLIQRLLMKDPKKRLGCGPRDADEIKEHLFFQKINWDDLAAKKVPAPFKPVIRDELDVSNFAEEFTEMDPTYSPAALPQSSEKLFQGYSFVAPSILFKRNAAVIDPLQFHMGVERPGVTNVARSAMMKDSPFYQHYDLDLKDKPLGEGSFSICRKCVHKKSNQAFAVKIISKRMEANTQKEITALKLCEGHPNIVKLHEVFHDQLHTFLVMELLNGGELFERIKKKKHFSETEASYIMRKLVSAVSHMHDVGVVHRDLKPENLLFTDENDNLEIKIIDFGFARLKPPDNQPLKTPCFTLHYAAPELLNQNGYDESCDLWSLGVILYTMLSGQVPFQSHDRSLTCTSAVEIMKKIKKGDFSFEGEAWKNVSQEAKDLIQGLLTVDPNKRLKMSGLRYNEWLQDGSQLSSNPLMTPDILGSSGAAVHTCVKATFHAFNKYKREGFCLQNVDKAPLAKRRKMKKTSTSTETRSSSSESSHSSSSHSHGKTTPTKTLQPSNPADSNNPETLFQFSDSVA
In short: as §1

PKCε(h) = molecular target: T2, PKCε(h) (Homo sapiens, UniProt Q02156)
T2 sequence (Q02156 1-737): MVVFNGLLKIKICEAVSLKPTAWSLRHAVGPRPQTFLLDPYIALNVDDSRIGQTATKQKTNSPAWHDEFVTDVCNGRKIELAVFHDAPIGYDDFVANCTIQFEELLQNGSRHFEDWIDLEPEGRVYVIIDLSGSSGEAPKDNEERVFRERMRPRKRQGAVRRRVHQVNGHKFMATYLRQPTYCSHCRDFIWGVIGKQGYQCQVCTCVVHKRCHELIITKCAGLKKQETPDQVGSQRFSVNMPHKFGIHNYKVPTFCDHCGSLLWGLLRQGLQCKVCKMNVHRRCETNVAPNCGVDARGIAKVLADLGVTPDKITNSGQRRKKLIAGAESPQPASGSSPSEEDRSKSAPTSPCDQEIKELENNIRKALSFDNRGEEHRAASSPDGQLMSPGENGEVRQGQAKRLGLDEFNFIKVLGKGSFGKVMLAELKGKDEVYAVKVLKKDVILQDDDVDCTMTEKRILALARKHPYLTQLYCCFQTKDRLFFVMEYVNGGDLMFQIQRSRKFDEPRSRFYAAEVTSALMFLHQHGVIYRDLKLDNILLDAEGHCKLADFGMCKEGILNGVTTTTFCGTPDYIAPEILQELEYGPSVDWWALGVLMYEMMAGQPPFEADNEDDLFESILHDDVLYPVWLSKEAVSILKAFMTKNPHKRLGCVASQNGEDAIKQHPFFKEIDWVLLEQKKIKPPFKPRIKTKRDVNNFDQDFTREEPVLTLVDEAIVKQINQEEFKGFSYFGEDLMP
In short: as §1

PKD2(h) = molecular target: T3, PKD2(h) (Homo sapiens, UniProt Q9BZL6)
T3 sequence (Q9BZL6 1-878): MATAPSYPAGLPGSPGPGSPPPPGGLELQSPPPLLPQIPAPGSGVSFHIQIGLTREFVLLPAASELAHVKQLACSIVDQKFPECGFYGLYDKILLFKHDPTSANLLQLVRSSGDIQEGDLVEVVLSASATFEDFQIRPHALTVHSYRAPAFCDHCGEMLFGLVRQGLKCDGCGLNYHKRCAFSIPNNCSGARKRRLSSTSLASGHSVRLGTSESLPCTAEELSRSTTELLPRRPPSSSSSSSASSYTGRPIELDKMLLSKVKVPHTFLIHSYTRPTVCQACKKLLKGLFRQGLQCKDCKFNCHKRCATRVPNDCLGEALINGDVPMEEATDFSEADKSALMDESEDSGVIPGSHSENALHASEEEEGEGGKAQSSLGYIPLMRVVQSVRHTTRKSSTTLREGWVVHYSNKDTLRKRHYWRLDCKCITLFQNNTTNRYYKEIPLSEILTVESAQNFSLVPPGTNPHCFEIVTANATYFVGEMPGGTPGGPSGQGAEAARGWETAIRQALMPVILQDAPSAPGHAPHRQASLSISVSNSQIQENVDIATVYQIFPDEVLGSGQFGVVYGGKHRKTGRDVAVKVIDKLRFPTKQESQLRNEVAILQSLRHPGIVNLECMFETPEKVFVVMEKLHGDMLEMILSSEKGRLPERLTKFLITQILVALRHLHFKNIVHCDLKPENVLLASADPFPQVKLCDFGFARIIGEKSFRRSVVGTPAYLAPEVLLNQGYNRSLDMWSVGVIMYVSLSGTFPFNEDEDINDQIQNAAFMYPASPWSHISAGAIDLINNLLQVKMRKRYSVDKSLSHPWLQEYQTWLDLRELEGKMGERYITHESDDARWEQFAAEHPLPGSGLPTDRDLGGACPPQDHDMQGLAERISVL
In short: as §1

PRK2(h) = PRK2(h) (Homo sapiens, UniProt Q16513)
Sequence of PRK2(h) (Q16513 whole entry): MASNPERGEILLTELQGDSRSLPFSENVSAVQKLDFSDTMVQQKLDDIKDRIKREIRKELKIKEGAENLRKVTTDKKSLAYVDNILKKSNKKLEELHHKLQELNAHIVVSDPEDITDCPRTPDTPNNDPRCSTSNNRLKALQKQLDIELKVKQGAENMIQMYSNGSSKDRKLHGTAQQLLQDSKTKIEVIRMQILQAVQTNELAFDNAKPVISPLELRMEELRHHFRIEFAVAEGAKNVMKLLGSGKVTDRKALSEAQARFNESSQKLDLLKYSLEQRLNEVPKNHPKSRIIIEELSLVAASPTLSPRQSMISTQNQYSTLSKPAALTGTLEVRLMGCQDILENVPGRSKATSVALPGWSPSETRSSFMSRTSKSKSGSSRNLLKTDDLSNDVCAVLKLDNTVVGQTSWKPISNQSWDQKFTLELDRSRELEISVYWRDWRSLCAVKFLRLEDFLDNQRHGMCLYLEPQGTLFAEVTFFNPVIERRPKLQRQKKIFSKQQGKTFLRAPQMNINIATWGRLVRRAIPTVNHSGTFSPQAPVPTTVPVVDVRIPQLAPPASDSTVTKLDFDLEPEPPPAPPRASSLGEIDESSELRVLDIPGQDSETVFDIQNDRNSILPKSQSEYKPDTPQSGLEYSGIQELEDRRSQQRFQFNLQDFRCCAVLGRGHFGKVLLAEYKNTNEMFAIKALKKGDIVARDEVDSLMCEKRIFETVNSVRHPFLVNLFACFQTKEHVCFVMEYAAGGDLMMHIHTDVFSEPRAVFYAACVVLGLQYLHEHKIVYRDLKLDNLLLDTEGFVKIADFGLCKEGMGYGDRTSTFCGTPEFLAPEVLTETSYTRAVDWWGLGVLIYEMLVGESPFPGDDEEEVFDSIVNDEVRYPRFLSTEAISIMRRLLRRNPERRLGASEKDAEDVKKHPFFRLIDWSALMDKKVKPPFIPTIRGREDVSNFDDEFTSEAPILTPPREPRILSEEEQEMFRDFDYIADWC
In short: as §1

Syk(h) = Syk(h) (Homo sapiens, UniProt P43405)
In short: as §1

CN(C)c1nc2ccc1CCCCn1cc(c3ccccc31)C1=C(C(=O)NC1=O)c1cn(c3ccccc13)CCC2 [Cpd 1, 31-(dimethylamino)-5,15,25,32-tetraazaheptacyclo[28.2.2.1^5,12.1^18,25.0^6,11.0^13,17.0^19,24]hexatriaconta-1(32),6,8,10,12(36),13(17),18(35),19,21,23,30,33-dodecaene-14,16-dione]
Activity at Protein Kinase Assays (% of control), CaMKIV(h) (CaMKIV(h)): 92 % of control | Activity at Protein Kinase Assays (% of control), MAPK1(h) (MAPK1(h)): 97 % of control | Activity at Protein Kinase Assays (% of control), MSK1(h) (MSK1(h)): 36 % of control | Activity at Protein Kinase Assays (% of control), PKCε(h) (PKCε(h)): 72 % of control | Activity at Protein Kinase Assays (% of control), PKD2(h) (PKD2(h)): 100 % of control | Activity at Protein Kinase Assays (% of control), PRK2(h) (PRK2(h)): 106 % of control | Activity at Protein Kinase Assays (% of control), Syk(h) (Syk(h)): 86 % of control

CN(C)c1cc2cc(n1)CCCn1cc(c3ccccc31)C1=C(C(=O)NC1=O)c1cn(c3ccccc13)CCC2 [Cpd 2, 20-(dimethylamino)-4,14,19,26-tetraazaheptacyclo[24.6.1.1^7,14.1^18,22.0^2,6.0^8,13.0^27,32]pentatriaconta-1(33),2(6),7(35),8,10,12,18(34),19,21,27,29,31-dodecaene-3,5-dione]
Activity at Protein Kinase Assays (% of control), CaMKIV(h) (CaMKIV(h)): 113 % of control | Activity at Protein Kinase Assays (% of control), MAPK1(h) (MAPK1(h)): 86 % of control | Activity at Protein Kinase Assays (% of control), MSK1(h) (MSK1(h)): 58 % of control | Activity at Protein Kinase Assays (% of control), PKCε(h) (PKCε(h)): 83 % of control | Activity at Protein Kinase Assays (% of control), PKD2(h) (PKD2(h)): 97 % of control | Activity at Protein Kinase Assays (% of control), PRK2(h) (PRK2(h)): 113 % of control | Activity at Protein Kinase Assays (% of control), Syk(h) (Syk(h)): 101 % of control

O=C1NC(=O)C2=C1c1cn(c3ccccc13)CCCc1cc(nc(N3CCCC3)c1)CCCn1cc2c2ccccc21 [Cpd 6, 20-pyrrolidin-1-yl-4,14,19,26-tetraazaheptacyclo[24.6.1.1^7,14.1^18,22.0^2,6.0^8,13.0^27,32]pentatriaconta-1(33),2(6),7(35),8,10,12,18(34),19,21,27,29,31-dodecaene-3,5-dione]
Activity at Protein Kinase Assays (% of control), CaMKIV(h) (CaMKIV(h)): 112 % of control | Activity at Protein Kinase Assays (% of control), MAPK1(h) (MAPK1(h)): 99 % of control | Activity at Protein Kinase Assays (% of control), MSK1(h) (MSK1(h)): 38 % of control | Activity at Protein Kinase Assays (% of control), PKCε(h) (PKCε(h)): 93 % of control | Activity at Protein Kinase Assays (% of control), PKD2(h) (PKD2(h)): 103 % of control | Activity at Protein Kinase Assays (% of control), PRK2(h) (PRK2(h)): 110 % of control | Activity at Protein Kinase Assays (% of control), Syk(h) (Syk(h)): 105 % of control

O=C1NC(=O)C2=C1c1cn(c3ccccc13)CCCc1ccc(c(N3CCCC3)n1)CCCn1cc2c2ccccc21 [Cpd 7, 31-pyrrolidin-1-yl-5,15,25,30-tetraazaheptacyclo[27.2.2.1^5,12.1^18,25.0^6,11.0^13,17.0^19,24]pentatriaconta-1(31),6,8,10,12(35),13(17),18(34),19,21,23,29,32-dodecaene-14,16-dione]
Activity at Protein Kinase Assays (% of control), CaMKIV(h) (CaMKIV(h)): 99 % of control | Activity at Protein Kinase Assays (% of control), MAPK1(h) (MAPK1(h)): 110 % of control | Activity at Protein Kinase Assays (% of control), MSK1(h) (MSK1(h)): 104 % of control | Activity at Protein Kinase Assays (% of control), PKCε(h) (PKCε(h)): 97 % of control | Activity at Protein Kinase Assays (% of control), PKD2(h) (PKD2(h)): 115 % of control | Activity at Protein Kinase Assays (% of control), PRK2(h) (PRK2(h)): 126 % of control | Activity at Protein Kinase Assays (% of control), Syk(h) (Syk(h)): 109 % of control
